Experimental data from patent EP0240630A2, “Treatment of skin of over androgenicity using compositions containing pregnenolone” (priority 1986, dated 1987).

Key:
flank organs = experiment: Stimulation of female hamster flank organ growth by topical DHA; type: in vivo, female hamsters; settings: 12 µg, 60 µg, 120 µg applied to the right side, 7 days/week for 6 weeks
Method: Before testing the anti-androgenic properties of pregnenolone on hamster flank organs and relying on the results, a centrally important question therefore needed to be answered -- Could DHA be shown to stimulate growth in the flank organs? This question was answered by applying graded doses of DHA, 12 µg, 60 µg, 120 µg to the right side of female hamsters (5 hamsters/group), for 7 days/week for 6 weeks.

flank organ = settings: topical application, graded doses, 5 days/week for 2 weeks; cited from earlier work
[1] = Solubility in formulation vehicles; type: physicochemical
Source text: With regard to formulation for use with humans, because pregnenolone is insoluble in water, most aqueous base vehicles or carriers are not useful in the invention. Vehicles with a high content of alcohols, such as isopropanol or mixtures of alcohols with longer (C₄-C₁₀) alkane or alkene chains, in which pregnenolone is soluble, would afford a suitable base for the formulation as liquid, gel or cream. Glycerol may be added in the preparation as an emollient. Glycerol is hygroscopic; it keeps the skin surface from drying. Other additions of moisturizers or perfumes as known in the art are compatible with pregnenolone.

[2] = system: 3β-hydroxysteroid dehydrogenase Δ^4-5-isomerase (3βHSD); experiment: Inhibition of 3βHSD conversion of 3H-DHA in rat preputial gland homogenate (TLC/scintillation counting); type: biochemical; settings: rat preputial gland homogenate, 1,2-³H-DHA with 100 nmoles DHA, 37°C; range of four separate incubations
Method: To assess the androgen inhibiting activity of pregnenolone, rat preputial gland was employed to investigate the in vitro androgenic action of DHA. […] A pair of the glands are situated in the prepuce of the rate of either sex weighing between 125-200 mg in an average 200 g rat, being slightly larger in the male animal. The animals employed were female Sprague-Dawley rats, 10-12 weeks old and weighing 225-300 g.
The experimental format, stated broadly, was to excise preputial glands from rats and prepare a homogenate therefrom. A predetermined amount of homogenate (the sample) was then spiked with radiolabeled (with ³H) DHA, in the presence or absence of pregnenolone, and the sample was incubated. […] The metabolites were quantitated by removal from the thin layer plate and counting in a scintillation counter. By determining the extent of metabolite formation, the extent of inhibition of 3βHSD could be correspondingly determined. […]
Experiments were initially conducted to ensure that DHA and its metabolites could be separated chromatographically. […] The position of the steroid can be readily traced with this method. […] Elution and quantitative evaluation of steroids can be effected after removal of the iodine. […] For quantitation the plates were then scraped in 1 cm sections for radioassay of ³H in a Packard Tri- Carb liquid scintillation counter. […]

acne vulgaris = type: in vivo, human
Method: The following experiment was conducted and is a typical trial. In a double-blind clinical trial 23 patients with acne vulgaris volunteered to participate. Fifteen patients (11 females and 4 males) were given a 1% solution of pregnenolone dissolved in isopropanol containing 1% glycerol, and 8 patients (5 females and 3 males) were given a 1% solution of glycerol in isopropanol. Neither the patients nor the attending dermatologist knew whether or not the dispensed solution contained pregnenolone. The patients were instructed to stop using their previous medications for two weeks and then to apply the given solution to their faces twice daily. They were reexamined biweekly.

3βHSD = experiment: In vivo metabolism of injected 1,2-3H-DHA in DHA-stimulated hamster flank organs after topical inhibitor; design: species or system Syrian Golden Hamsters; settings: female hamsters, pregnenolone topical for 3 days; 1 hour after intracardial ³H-DHA
Source text: The effects of hormones and hormonally active substances on sebaceous glands can also be evaluated using the Syrian hamster flank organs as an animal model. The results of experiments using hamsters are valuable inasmuch as they can provide in vivo confirmation of the in vitro experiments like those described above using rat preputial gland. The flank organs, also called the costovertebral spot or the costovertebral organ, are sebaceous structures located on each flank of the animal. Like the sebaceous glands of the human and the preputial gland of the rate they are androgen dependent (Voigt and Hsia, 1973; Gomez and Frost, 1969; Frost and Gomez, 1973).
Hamster flank organs were accordingly used to test in vivo the androgenic inhibitory properties of pregnenolone.
Female Syrian Golden Hamsters were used in this experiment. […]
On the afternoon of day 3, an intracardial injection of 1,2-³H-DHA (5µCi/0.1 ml saline buffer solution) was given to both experimental groups anesthetized with ether. […] Each organ was then placed in a 16 mm x 150 mm test tube containing methanol and was homogenized, extracted and analyzed for steroid metabolites by separating the metabolites using thin layer chromatography as described above, scraping the thus separated metabolites from the thin layer plates, and quantitating using a scintillation counter. […]
Results are shown in Figure 2 expressed as DPM/mg tissue.

[3] = 1% pregnenolone in isopropanol containing 1% glycerol, face, twice daily, twelve weeks, 15 patients

With `C[C@]12CC[C@H](O)CC1=CC[C@@H]1[C@@H]2CC[C@]2(C)C(=O)CC[C@@H]12` [DHA, dehydroepiandrosterone] the “stimulation of flank organ growth” value (flank organs) was “stimulation of both flank organs”.
In the case of `C[C@]12CCC(=O)C[C@@H]1CC[C@@H]1[C@@H]2CC[C@]2(C)[C@@H](O)CC[C@@H]12` [DHT, dihydrotestosterone], the “flank organ sebaceous gland growth and pigmentation” value (flank organ) is listed as “unilateral stimulation of sebaceous gland growth and pigmentation”.
For `C[C@]12CCC(=O)C=C1CC[C@@H]1[C@@H]2CC[C@]2(C)C(=O)CC[C@@H]12` [androstenedione, Δ⁴-androstenedione], the “flank organ sebaceous gland growth and pigmentation” value (flank organ) is given as “unilateral stimulation of sebaceous gland growth and pigmentation”.
For `C[C@]12CC[C@@H](O)C[C@@H]1CC[C@@H]1[C@@H]2CC[C@]2(C)C(=O)CC[C@@H]12` [androsterone], the “flank organ sebaceous gland growth and pigmentation” value (flank organ) is listed as “did not cause flank organ growth or increased pigmentation”.
For `C[C@]12CC[C@H](O)C[C@@H]1CC[C@@H]1[C@@H]2CC[C@]2(C)C(=O)CC[C@@H]12` [epiandrosterone], the “flank organ sebaceous gland growth and pigmentation” value (flank organ) is given as “did not cause flank organ growth or increased pigmentation”.
In the case of `C[C@]12CCC(=O)C=C1CC[C@@H]1[C@@H]2CC[C@@]2(C)[C@H]1CC[C@]2(C)O` [methyltestosterone], the “flank organ sebaceous gland growth and pigmentation” value (flank organ) is given as “unilateral stimulation of sebaceous gland growth and pigmentation”.
In the case of `CC(=O)[C@H]1CC[C@H]2[C@@H]3CC=C4C[C@@H](O)CC[C@]4(C)[C@H]3CC[C@]12C` [pregnenolone, Δ⁵-pregnene-3β-o1-20-one], the “solubility in vehicles with a high content of alcohols” value ([1]; isopropanol or mixtures of alcohols with longer (C₄-C₁₀) alkane or alkene chains) is reported as “soluble”, the solubility in water ([1]; water) is reported as “insoluble” and the “inhibition of the 3βHSD for DHA (Δ⁴-3-keto product formed, relative to absence of the inhibitor)” value [2] is reported as 91-92%. The “patients noted definite improvement, with reduction in the size and number of lesions” value (acne vulgaris; [3]) was 33%, the “patients noted no change in lesions or oiliness” value (acne vulgaris; [3]) was 26% and the “patients noted reduction of oiliness” value (acne vulgaris; [3]) was 13%. For the same compound, the “patients noted slight reduction of the number of lesions and a reduction in the oiliness of the skin” value (acne vulgaris; [3]) was 26%, the “patients showed marked reductions in skin oiliness and in pore size” value (acne vulgaris; 1% pregnenolone in isopropanol containing 1% glycerol, twelve weeks, 15 patients) was “two” and the “patients' comparison with other medications used previously” value (acne vulgaris; claim of patients who had used other medications previously) was “more effective and more acceptable”. For the same compound, the “irritation or discomfort caused by the topical application” value (acne vulgaris; human, in vivo) was “no complaint” and the “formation of testosterone, DHT and androstanediol in flank organs, control versus treated” value (3βHSD) was “Control hamsters, not treated with inhibitor, show greater formation”.
In the case of `CC(=O)[C@H]1CC[C@H]2[C@@H]3CCC4=CC(=O)CC[C@]4(C)[C@H]3CC[C@]12C` [progesterone], the “flank organ sebaceous gland growth and pigmentation” value (flank organ) is given as “did not cause flank organ growth or increased pigmentation”.
For `C[C@]12CC[C@H]3[C@@H](CCC4=CC(=O)CC[C@@]43C)[C@@H]1CC[C@@H]2O` [testosterone], the “flank organ sebaceous gland growth and pigmentation” value (flank organ) is given as “unilateral stimulation of sebaceous gland growth and pigmentation”.
